From paper PMC10266688 (PLOS ONE, 2023)
pIC50: −log10 of the molar value. Where “and” joins values, the source holds several entries; their conditions need not be identical. Equal values may be shown once.

Experiments:
[1] = tested on: proteasome (4UbFL reporter); test: 4UbFL reporter assay in ES2 cells; assay type: cell-based, human; settings: 4 h
Procedure: Sub-confluent cultures of cells were transfected with 4UbFL plasmid using TransIT 2020 reagent (Mirus Bio). Cells were seeded at 10,000 cells/well in 96-well plates 48 h post transfection, and incubated with compounds or vehicle (DMSO) at the doses and for the times indicated. Luciferase activity in cell lysate was determined with a luciferase assay kit (Promega) according to the manufacturer’s instructions. Bioluminescence was measured using a Glomax Multidetection system (Promega).
Two days later, luciferin was injected IP and the baseline enzymic activity of luciferase in the transduced muscle tissue was visualized as bioluminescence within this region of interest (ROI) using an IVIS imager. […]. After 4h, 24h and 48h the mice were again injected with luciferin, imaged and bioluminescence was quantified (Fig 5B). […] A) ES2 cells stably transduced with the 4UbFL reporter plasmid were treated with compounds at indicated doses for 4 h. The cells were then washed, lysed and their luminescence measured by a luminometer after addition of luciferin. B) Female CD1 mice electroporated with 4UbFL plasmid in their leg muscle. After 48 h, the mice were injected with luciferin, imaged by IVIS for their basal bioluminescence and randomized into two groups of five. […]. D) Up284 tissue distribution. […].

TC1-OVA cells = test: Antigen presentation (H-2Kb/[…]) by TC1-OVA cells, flow cytometry; assay type: cell-based, mouse; settings: 0.25 μM, 12 h
Procedure: TC1 cells stably expressing Ovalbumin (TC1-OVA) were plated (125,000 cells/well) in a 6 well plate in 2 mL RPMI complete medium.
C) TC1-OVA cells were plated (125,000 cells/well) in a 6 well plate in 2 mL/well in complete medium.

[2] = target: T1, 42kDa cellular protein (RPN13) (Homo sapiens, UniProt Q16186); test: Competition for RA190B binding in HeLa cell lysate; settings: HeLa lysate pre-treated with compound (5 μM) 45 min 4°C, then RA190B (20 μM)
T1 construct: endogenous in cells; host or cells: HeLa cell lysate
Procedure: NEM (1 mM) used as positive control.

[3] = tested on: HMW polyUb proteins in ES2 cells; test: Western blot for polyubiquitinated proteins; settings: by 12 h
SKOV3 cells = test: MTT cytotoxicity assay, SKOV3 cells, 72 h; assay type: cell-based; settings: Homo sapiens, SK-OV-3; 72 h treatment
HeLa cells = test: MTT cytotoxicity assay, HeLa cells, 72 h; assay type: cell-based; settings: Homo sapiens, 72 h treatment
[4] = tested on: proteasome (4UbFL reporter); test: 4UbFL reporter in ES2-4UbFL tumor and leg muscle of nude mice; assay type: in vivo, mouse; settings: single IP dose Up284 20mg/kg or bortezomib 0.75 mg/kg, 4 h and 24 h
Procedure: A-C) Female nude mice were inoculated IP with ES2-luc cells, a human ovarian cancer line expressing luciferase. […] The IP tumor tissue and electroporated normal muscle tissue, being spatially distinct, were identified with separate regions of interest (ROI) after simultaneous imaging with IVIS.
Briefly mice were inoculated IP with ES2 cells stably expressing 4UbFL. After 48 h, the mice were injected with luciferin, imaged and then randomized into 3 groups (n = 5/group). Next, leg muscle of each mouse was electroporated with 4UbFL plasmid (considered as normal tissue). After 48 h (i.e. day 4) the mice were re-imaged and basal bioluminescence (0 h) was separately measured in the leg muscle and peritoneal ROIs.

[5] = Repeat dosing toxicity study: hematologic parameters; settings: female CD1 mice, Up284 20 mg/kg, Bortezomib 1 mg/kg
Procedure: The mice were divided into three groups consisting of three female CD1 mice each. […] Terminal blood sampling for hematological and serum biochemical analysis was performed on Day 7 of the study, 24 h after the last dosing. […] Terminal bleeding and euthanasia were performed on Day 7, 24 h after the third dosing. Blood collection was carried out after 6 h fasting. Animals were injected IP with 2,2,2-tribromoethanol (200 mg/kg) and the blood was collected from orbital sinuses into dry microtainers without anticoagulant. For the serum collection, the tubes with collected blood were held at RT for 15–60 min after blood drawing to form a clot, and then were centrifuged at 9000 rpm for 20 min at 4°C. The collected serum was frozen within 60–80 min after blood drawing and was stored at -20°C for further clinical chemistry analysis. For the hematological study, 25 μL of fresh blood was quickly mixed with an equal volume of 0.36% solution of K2EDTA in saline. Assessment of the hematological parameters was performed using the BIO TE hematology analyzer MCL-3124 and consumable reagents (Cormay) within 2 h of the blood draw. For clinical chemistry analyses, ASAT, ALAT, ALP, LDH, GGT, CK, Creatinine, Urea and TP were determined in the serum using commercial kits according to the manufacturer’s instructions.

TOV21G and ES2 cells = test: Annexin V apoptosis assay; settings: TOV21G and ES2, 12 h

T1 sequence (Q16186 2-407): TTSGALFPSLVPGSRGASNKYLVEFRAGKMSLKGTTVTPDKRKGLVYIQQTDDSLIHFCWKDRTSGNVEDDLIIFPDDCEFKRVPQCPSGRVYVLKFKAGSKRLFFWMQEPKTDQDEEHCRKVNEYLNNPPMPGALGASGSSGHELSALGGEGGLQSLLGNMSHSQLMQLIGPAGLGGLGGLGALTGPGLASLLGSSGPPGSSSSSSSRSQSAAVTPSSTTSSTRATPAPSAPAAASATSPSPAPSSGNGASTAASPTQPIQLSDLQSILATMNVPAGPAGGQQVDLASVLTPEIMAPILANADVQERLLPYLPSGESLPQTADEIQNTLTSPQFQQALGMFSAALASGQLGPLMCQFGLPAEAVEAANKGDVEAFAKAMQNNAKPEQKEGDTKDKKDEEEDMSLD

Row | SMILES | competition for RA190B binding to the 42KDa cellular protein [2] | pIC50 (SKOV3 cells) | pIC50 (HeLa cells) | also measured
1 | Cl.N[C@@H](Cc1ccccc1)C(=O)N1C/C(=C/c2ccc(Cl)c(Cl)c2)C(=O)/C(=C\c2ccc(Cl)c(Cl)c2)C1 [RA190, reference compound] | competed | – | – | stabilization of 4UbFL reporter (fold increase in luminescence) [1]: dose-dependent stabilization; MHC class I antigen presentation (SIINFEKL on H-2Kb) (TC1-OVA cells): enhance MHC class I presentation; accumulation of HMW polyUb proteins [3]: profound accumulation
2 | C=CC(=O)N1CCC2(CC1)/C(=C\c1ccc(C#N)cc1)C(=O)/C2=C/c1ccc(C#N)cc1 [Up285] | competed | 7.22 | 7.60 | –
3 | N#Cc1ccc(/C=C2/C(=O)/C(=C/c3ccc(C#N)cc3)C23CCN(C(=O)c2ccccc2)CC3)cc1 [Up288] | – | 6.41 | 6.55 | –
4 | N#Cc1ccc(/C=C2/C(=O)/C(=C/c3ccc(C#N)cc3)C23CCN(C(=O)C(F)(F)F)CC3)cc1 [Up290] | – | 6.54 | 6.82 | –
5 | CCCC(CCC)C(=O)N1CCC2(CC1)/C(=C\c1ccc(C#N)cc1)C(=O)/C2=C/c1ccc(C#N)cc1 [Up291] | – | 6.38 | 6.60 | –
6 | N#Cc1ccc(/C=C2/C(=O)/C(=C/c3ccc(C#N)cc3)C23CCNC3)cc1 [Up302] | – | 6.77 | 7.10 | –
7 | C=CC(=O)N1CCC2(C1)/C(=C\c1ccc(C#N)cc1)C(=O)/C2=C/c1ccc(C#N)cc1 (centres unmarked) [Up306] | – | 6.92 | 7.30 | –
8 | CC(C)C[C@H](NC(=O)[C@H](Cc1ccccc1)NC(=O)c1cnccn1)B(O)O [bortezomib] | did not compete | – | – | MHC class I antigen presentation (SIINFEKL on H-2Kb) (TC1-OVA cells): did not; 4UbFL bioluminescence signal in muscle tissue vs tumor [4]: similarly enhanced the bioluminescence signal; MPV ([5]; group Mean): 5.70 fL; MPV ([5]; individual mice): 5.70 fL and 5.60 fL and 5.80 fL
9 | N.N.[Cl][Pt][Cl] [cisplatin, reference compound] | – | – | – | Annexin-V positive cells, single agent (TOV21G and ES2 cells): minimal impact
